Laboratory results reported in article PMC2655357 (The Febs Journal, 2008).

Target: AaIspE (Aquifex aeolicus, UniProt O67060)
Experiment: crystal structure
Type: binding
Conditions: co-crystallized with 4 mM AMP-PNP and 4 mM CDP; substrate (CDPME) site

Chain of AaIspE (O67060 whole entry): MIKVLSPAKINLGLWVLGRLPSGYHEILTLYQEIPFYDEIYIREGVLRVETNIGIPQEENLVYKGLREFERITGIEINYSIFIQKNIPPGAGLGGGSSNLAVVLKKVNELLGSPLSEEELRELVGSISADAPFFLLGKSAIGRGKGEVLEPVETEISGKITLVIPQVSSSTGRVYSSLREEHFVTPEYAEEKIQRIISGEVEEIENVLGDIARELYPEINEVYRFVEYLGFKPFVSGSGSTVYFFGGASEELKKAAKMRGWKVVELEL

SMILES: Nc1ccn([C@@H]2O[C@H](COP(=O)(O)OP(=O)(O)O)[C@@H](O)[C@H]2O)c(=O)n1 [CDP]
- crystal structure (complex I, 2.1 Å): In complex I, CDP displays a single conformation in molecule A and three in molecule B
